Test results taken from patent US11529361B2, “Halogenated salicylanilides for treating Clostridium infections” (UNION therapeutics A/S, priority 2015, dated 2022).
Converted amounts (≈) assume the structure as drawn. Read-outs that look alike come from different tables or passages of the source.

Tests used:
[1] = test system: mice; details: p.o.; cited from earlier work
[2] = via the urinary tract or by enzymatic metabolism in the liver; cited from earlier work
[3] = test system: cats; details: p.o.; cited from earlier work
[4] = test system: C. difficile clinical isolates; assay: MIC determination by microbroth dilution per CLSI guideline (Example 1); format: cell-based, Clostridium difficile; details: Clostridioides difficile
[5] = cited from earlier work
[6] = test system: rats; details: p.o., cited from earlier work
[7] = test system: 24 clinical isolate strains of C. difficile; assay: Additional MIC determinations, antibacterial activity by OD600 (Example 3); format: cell-based, Clostridium difficile
[8] = test system: Clostridium difficile 7-6011209; format: cell-based
[9] = read-out: C. difficile Strain 7-6011209 MIC
[10] = read-out: C. difficile Strain 12055 MIC

## O=C(Nc1ccc([N+](=O)[O-])cc1Cl)c1cc(Cl)ccc1O [Niclosamide, 2′,5-dichloro-4′-nitrosalicylanilide]
[1]
  LD50: > 5000 mg/kg
[2]
  clearance from the bloodstream: quickly cleared
[3]
  LD50: > 1000 mg/kg
[4]; isolate 7-5085357, read-out: MIC of clinical isolates of C. difficile
  MIC: 0.125 µg/mL
[4]; isolate 7-5779928, read-out: MIC of clinical isolates of C. difficile
  MIC: 0.25 µg/mL
[4]; isolate 7-6008526, read-out: MIC of clinical isolates of C. difficile
  MIC: 0.25 µg/mL
[4]; isolate 7-6011209, read-out: MIC of clinical isolates of C. difficile
  MIC: 0.06 µg/mL
[4]; isolate 7-6778909, read-out: MIC of clinical isolates of C. difficile
  MIC: 0.25 µg/mL
[4]; isolate 7-6854508, read-out: MIC of clinical isolates of C. difficile
  MIC: 0.125 µg/mL
[4]; isolate 7-6870430, read-out: MIC of clinical isolates of C. difficile
  MIC: 0.25 µg/mL
[4]; isolate 7-7104022, read-out: MIC of clinical isolates of C. difficile
  MIC: 0.125 µg/mL
[4]; isolate 7-7116411, read-out: MIC of clinical isolates of C. difficile
  MIC: 0.125 µg/mL
[4]; isolate 7-7124449, read-out: MIC of clinical isolates of C. difficile
  MIC: 0.125 µg/mL
[4]; isolate 7-7149204, read-out: MIC of clinical isolates of C. difficile
  MIC: 0.125 µg/mL
[4]; isolate 7-7150288, read-out: MIC of clinical isolates of C. difficile
  MIC: 0.125 µg/mL
[4]; isolate 7-7150318, read-out: MIC of clinical isolates of C. difficile
  MIC: 0.125 µg/mL
[4]; isolate 7-7150628, read-out: MIC of clinical isolates of C. difficile
  MIC: 0.125 µg/mL
[4]; isolate 7-7150997, read-out: MIC of clinical isolates of C. difficile
  MIC: 0.125 µg/mL
[4]; isolate 7-7151551, read-out: MIC of clinical isolates of C. difficile
  MIC: 0.25 µg/mL
[4]; isolate 7-7152701, read-out: MIC of clinical isolates of C. difficile
  MIC: 0.25 µg/mL
[4]; isolate 7-7153872, read-out: MIC of clinical isolates of C. difficile
  MIC: 0.5 µg/mL
[4]; isolate 7-7154712 (listed twice), read-out: MIC of clinical isolates of C. difficile
  MIC: 0.25 µg/mL
[4]; isolate 7-7154992, read-out: MIC of clinical isolates of C. difficile
  MIC: 0.25 µg/mL
[4]; isolate 7-7156197, read-out: MIC of clinical isolates of C. difficile
  MIC: 0.25 µg/mL
[4]; isolate 7-7200552, read-out: MIC of clinical isolates of C. difficile
  MIC: 0.25 µg/mL
[4]; isolate 7-7363761, read-out: MIC of clinical isolates of C. difficile
  MIC: 0.125 µg/mL
[4]; isolate 12055, read-out: MIC of clinical isolates of C. difficile
  MIC: 0.125 µg/mL
[4]; isolate 12060, read-out: MIC of clinical isolates of C. difficile
  MIC: 0.125 µg/mL
[4]; isolate 12061, read-out: MIC of clinical isolates of C. difficile
  MIC: 0.06 µg/mL
[4]; isolate 12062, read-out: MIC of clinical isolates of C. difficile
  MIC: 0.06 µg/mL
[4]; isolate 12063, read-out: MIC of clinical isolates of C. difficile
  MIC: 0.06 µg/mL
[4]; isolate 12064, read-out: MIC of clinical isolates of C. difficile
  MIC: 0.06 µg/mL
[4]; niclosamide, matches Table 2, read-out: Highest MIC observed
  MIC: 0.5 µg/mL (≈ 1.53 µM)
[4]; footnote b: data from tables herein
  MIC90: 0.06 to 0.25 µg/mL (≈ 0.183 to 0.764 µM)
[5]
  solubility in water: poorly soluble in water

## O=C(Nc1cc(Cl)cc(Cl)c1O)c1c(O)c(Cl)cc(Cl)c1Cl [Oxyclozanide]
[6]
  LD50: 980 to 3519 mg/kg
[4]; Table 3, strain 7-6011209, read-out: C. difficile Strain 7-6011209 MIC
  MIC: 0.25 µg/mL (≈ 0.623 µM)
[4]; Table 3, strain 12055, read-out: C. difficile Strain 12055 MIC
  MIC: 0.25 µg/mL (≈ 0.623 µM)
[7]; strain 7-5085357 (ST028)
  MIC: 0.016 µg/mL (≈ 0.0399 µM)
[7]; strain 7-6011209 (ST002)
  MIC: < 0.008 µg/mL
[7]; strain 7-6778909 (ST016)
  MIC: < 0.008 µg/mL
[7]; strain 7-6854508 (ST013)
  MIC: < 0.008 µg/mL
[7]; strain 7-6870430 (ST001)
  MIC: < 0.008 µg/mL
[7]; strain 7-7104022 (ST103)
  MIC: < 0.008 µg/mL
[7]; strain 7-7116411 (ST005)
  MIC: 0.125 µg/mL (≈ 0.311 µM)
[7]; strain 7-7124449 (ST009)
  MIC: 0.031 µg/mL (≈ 0.0772 µM)
[7]; strain 7-7149204 (ST006)
  MIC: < 0.008 µg/mL
[7]; strain 7-7150288 (ST003)
  MIC: < 0.008 µg/mL
[7]; strain 7-7150318 (ST059)
  MIC: 0.016 µg/mL (≈ 0.0399 µM)
[7]; strain 7-7150628 (ST034)
  MIC: 0.31 µg/mL (≈ 0.772 µM)
[7]; strain 7-7150997 (ST049)
  MIC: < 0.008 µg/mL
[7]; strain 7-7154992 (ST139)
  MIC: < 0.008 µg/mL
[7]; strain 7-7200552 (ST017)
  MIC: 0.25 µg/mL (≈ 0.623 µM)
[7]; strain 12055
  MIC: 0.016 µg/mL (≈ 0.0399 µM)
[7]; strain 12060
  MIC: 0.031 µg/mL (≈ 0.0772 µM)
[7]; strain 12061
  MIC: 0.016 µg/mL (≈ 0.0399 µM)
[7]; strain 12062
  MIC: < 0.008 µg/mL
[7]; strain 12063
  MIC: 0.016 µg/mL (≈ 0.0399 µM)
[7]; strain 12064
  MIC: < 0.008 µg/mL
[7]; strain 12065
  MIC: 0.031 µg/mL (≈ 0.0772 µM)
[7]; strain 12066
  MIC: 0.125 µg/mL (≈ 0.311 µM)

## O=C(Nc1ccc(Oc2ccc(Cl)cc2)c(Cl)c1)c1cc(I)cc(I)c1O [Rafoxanide]
[1]
  LD50: 232 to 300 mg/kg
[6]; median over studies
  LD50, median: > 1490 mg/kg
[4]; [9]
  MIC: < 0.08 µg/mL
[4]; [10]
  MIC: < 0.08 µg/mL
[8]
  formation of heat-resistant spores over time: suppressed formation of spores throughout the 96 hour study period
[7]; strain 7-5085357 (ST028)
  MIC: 0.016 µg/mL (≈ 0.0256 µM)
[7]; strain 7-6011209 (ST002)
  MIC: < 0.008 µg/mL
[7]; strain 7-6778909 (ST016)
  MIC: < 0.008 µg/mL
[7]; strain 7-6854508 (ST013)
  MIC: < 0.008 µg/mL
[7]; strain 7-6870430 (ST001)
  MIC: < 0.008 µg/mL
[7]; strain 7-7104022 (ST103)
  MIC: < 0.008 µg/mL
[7]; strain 7-7116411 (ST005)
  MIC: 0.031 µg/mL (≈ 0.0495 µM)
[7]; strain 7-7124449 (ST009)
  MIC: 0.031 µg/mL (≈ 0.0495 µM)
[7]; strain 7-7149204 (ST006)
  MIC: < 0.008 µg/mL
[7]; strain 7-7150288 (ST003)
  MIC: < 0.008 µg/mL
[7]; strain 7-7150318 (ST059)
  MIC: < 0.008 µg/mL
[7]; strain 7-7150628 (ST034)
  MIC: 0.31 µg/mL (≈ 0.495 µM)
[7]; strain 7-7150997 (ST049)
  MIC: < 0.008 µg/mL
[7]; strain 7-7154992 (ST139)
  MIC: 0.016 µg/mL (≈ 0.0256 µM)
[7]; strain 7-7200552 (ST017)
  MIC: 0.063 µg/mL (≈ 0.101 µM)
[7]; strain 12055
  MIC: < 0.008 µg/mL
[7]; strain 12060
  MIC: 0.031 µg/mL (≈ 0.0495 µM)
[7]; strain 12061
  MIC: 0.016 µg/mL (≈ 0.0256 µM)
[7]; strain 12062
  MIC: 0.016 µg/mL (≈ 0.0256 µM)
[7]; strain 12063
  MIC: < 0.008 µg/mL
[7]; strain 12064
  MIC: < 0.008 µg/mL
[7]; strain 12065
  MIC: 0.016 µg/mL (≈ 0.0256 µM)
[7]; strain 12066
  MIC: 0.063 µg/mL (≈ 0.101 µM)

## O=C(Nc1ccc(Br)cc1)c1cc(Br)cc(Br)c1O [Tribromsalan, 3,4′,5-tribromosalicylanilide]
[4]; [9]
  MIC: 0.125 µg/mL (≈ 0.278 µM)
[4]; [10]
  MIC: 0.25 µg/mL (≈ 0.556 µM)
[7]; strain 7-5085357 (ST028)
  MIC: 0.016 µg/mL (≈ 0.0356 µM)
[7]; strain 7-6011209 (ST002)
  MIC: < 0.008 µg/mL
[7]; strain 7-6778909 (ST016)
  MIC: < 0.008 µg/mL
[7]; strain 7-6854508 (ST013)
  MIC: 0.031 µg/mL (≈ 0.0689 µM)
[7]; strain 7-6870430 (ST001)
  MIC: 0.016 µg/mL (≈ 0.0356 µM)
[7]; strain 7-7104022 (ST103)
  MIC: 1 µg/mL (≈ 2.22 µM)
[7]; strain 7-7116411 (ST005)
  MIC: < 0.008 µg/mL
[7]; strain 7-7124449 (ST009)
  MIC: 0.063 µg/mL (≈ 0.14 µM)
[7]; strain 7-7149204 (ST006)
  MIC: < 0.008 µg/mL
[7]; strain 7-7150288 (ST003)
  MIC: < 0.008 µg/mL
[7]; strain 7-7150318 (ST059)
  MIC: < 0.008 µg/mL
[7]; strain 7-7150628 (ST034)
  MIC: 0.031 µg/mL (≈ 0.0689 µM)
[7]; strain 7-7150997 (ST049)
  MIC: 0.16 µg/mL (≈ 0.356 µM)
[7]; strain 7-7154992 (ST139)
  MIC: 0.063 µg/mL (≈ 0.14 µM)
[7]; strain 7-7200552 (ST017)
  MIC: 0.25 µg/mL (≈ 0.556 µM)
[7]; strain 12055
  MIC: 0.016 µg/mL (≈ 0.0356 µM)
[7]; strain 12060
  MIC: 0.063 µg/mL (≈ 0.14 µM)
[7]; strain 12061
  MIC: 0.016 µg/mL (≈ 0.0356 µM)
[7]; strain 12062
  MIC: < 0.008 µg/mL
[7]; strain 12063
  MIC: 0.016 µg/mL (≈ 0.0356 µM)
[7]; strain 12064
  MIC: < 0.008 µg/mL
[7]; strain 12065
  MIC: 0.016 µg/mL (≈ 0.0356 µM)
[7]; strain 12066
  MIC: 0.031 µg/mL (≈ 0.0689 µM)
